The source made the active and inactive calls. The rule behind the calls is not given here.
Columns and labels:
LNCaP [1] = experiment: Cell cycle arrest in human LNCaP cells assessed as accumulation of cells at G2 phase at 20 to 50 uM after 24 hrs by DAPI staining-based fluorescence assay; type: functional; conditions: dose microM 20-50, time 24.0 hrs
LNCaP [2] = experiment: Cell cycle arrest in human LNCaP cells assessed as accumulation of cells at M phase at 20 to 50 uM after 24 hrs by DAPI staining-based fluorescence assay; type: functional; conditions: dose microM 20-50, time 24.0 hrs
LNCaP [3] = experiment: Reduction in mitochondrial membrane potential in human LNCaP cells assessed as reduction in tubular structure at 20 to 50 uM after 24 hrs by Hoechst 33342/MTG staining-based by fluorescence assay; type: functional, cell-based; conditions: dose microM 20-50, time 24.0 hrs
LNCaP [4] = experiment: Cell cycle arrest in human LNCaP cells assessed as cell death at 20 to 50 uM after 24 hrs in presence of 6AA by DAPI staining-based fluorescence assay; type: functional; conditions: dose microM 20-50, time 24.0 hrs
LNCaP [5] = experiment: Cell cycle arrest in human LNCaP cells assessed as cell death at 20 to 50 uM after 24 hrs in presence of VINB by DAPI staining-based fluorescence assay; type: functional; conditions: dose microM 20-50, time 24.0 hrs
LNCaP [6] = experiment: Reduction in mitochondrial membrane potential in human LNCaP cells assessed as mitochondrial morphological change at 50 uM after 24 hrs by Hoechst 33342/MTG staining-based by fluorescence assay; type: functional, cell-based

Structure (SMILES)	Activity (LNCaP [1])	Activity (LNCaP [2])	Activity (LNCaP [3])	Activity (LNCaP [4])	Activity (LNCaP [5])	Activity (LNCaP [6])
COC1=C(Br)C[C@@]2(OC=C1Br)ON=C(C(=O)NCCCOc1c(Br)cc(CCN(C)C(=O)Nc3cccc(OC)c3OC)cc1Br)[C@H]2O	inactive	inactive	–	–	–	–
COC1=C(Br)C[C@@]2(OC=C1Br)ON=C(C(=O)NCCCOc1c(Br)cc(CCN(C)C(=O)Nc3ccc(C(C)=O)cc3)cc1Br)[C@H]2O	Active	Active	–	–	–	–
COC1=C(Br)C[C@@]2(OC=C1Br)ON=C(C(=O)NCCCOc1c(Br)cc(CCN(C)C(=O)C(C)(C)C)cc1Br)[C@H]2OC(=O)C(C)(C)C	Active	Active	Active	–	–	–
C=CCNC(=O)N(C)CCc1cc(Br)c(OCCCNC(=O)C2=NO[C@]3(CC(Br)=C(OC)C(Br)=CO3)[C@@H]2O)c(Br)c1	Active	Active	Active	–	–	–
CCCCNC(=O)N(C)CCc1cc(Br)c(OCCCNC(=O)C2=NO[C@]3(CC(Br)=C(OC)C(Br)=CO3)[C@@H]2O)c(Br)c1	Active	Active	Active	Active	Active	–
COC1=C(Br)C[C@@]2(OC=C1Br)ON=C(C(=O)NCCCOc1c(Br)cc(CCN(C)C(=O)NCCc3ccc(F)cc3)cc1Br)[C@H]2O	Active	Active	–	–	–	–
COC1=C(Br)C[C@@]2(OC=C1Br)ON=C(C(=O)NCCCOc1c(Br)cc(CCN(C)C(=O)C(C)(C)C)cc1Br)[C@H]2O	Active	Active	Active	Active	Active	–
CNCCc1cc(Br)c(OCCCNC(=O)C2=NO[C@]3(CC(Br)=C(OC)C(Br)=CO3)[C@@H]2O)c(Br)c1	Active	Active	Active	–	–	Active
COC1=C(Br)C[C@@]2(OC=C1Br)ON=C(C(=O)NCCCOc1c(Br)cc(CCN(C)C(=O)Nc3ccccc3)cc1Br)[C@H]2OC(=O)c1ccccc1	inactive	inactive	–	–	–	–
COC1=C(Br)C[C@@]2(OC=C1Br)ON=C(C(=O)NCCCOc1c(Br)cc(CCN(C)C(=O)NC3CCCC3)cc1Br)[C@H]2O	Active	Active	–	–	–	–
COC1=C(Br)C[C@@]2(OC=C1Br)ON=C(C(=O)NCCCOc1c(Br)cc(CCN(C)C(=O)NCc3ccc(OC)cc3)cc1Br)[C@H]2O	inactive	inactive	–	–	–	–

Reference: ChEMBL document CHEMBL4665706, “Synthesis of a Unique Psammaplysin F Library and Functional Evaluation in Prostate Cancer Cells by Multiparametric Quantitative Single Cell Imaging” (J Nat Prod, 2020)
